Assays:
[1] = target: T1, MBP-HTT(1-89)Q46-His(6×) (Exon1-Q46) protein aggregates (Homo sapiens, UniProt P42858, INS38QQQQQQQQQQQQQQQQQQQQQQQQQ); experiment: Exon1-Q46 radioligand binding assay (RBA); conditions: aggregated Exon1-Q46 1 μM; 0.3 nM ligand [3H3-methyl]-5-((5-methoxypyridin-2-yl)methoxy)-2-(pyrazin-2-yl)benzo[d]oxazole; 60 minutes at 37° C.; read-out: Potency Range (IC50)
T1 construct: MBP-HTT(1-89)Q46-His(6×); His(6×) (C); made in house
Experimental: Exon1-Q46 Radioligand Binding Assay
For radioligand binding assays (RBA) MBP-HTT(1-89)Q46-His(6×) (“Exon1-Q46”) protein was generated based on a previous publication (Scherzinger et al. Cell, Vol. 90, 549-558, Aug. 8, 1997). For experiments 30 μM MBP-Exon1-Q46 was incubated with 150 μg/mL thrombin in assay buffer (150 mM NaCl, 50 mM Tris pH 8.0) and 2 mM CaCl2 for 16 hours at 37° C. Aggregated Exon1-Q46 was pelleted by centrifugation for 5 minutes at 13,000 rpm in a bench top centrifuge and re-dissolved in the same volume of assay buffer. Test compounds were prepared by titration in DMSO at 11 concentrations from 63 μM to 2 nM. For the RBA, Exon1-Q46 protein aggregates and test compounds were pre-incubated in assay buffer for 20 minutes at room temperature, in 100 μL/well in a 96-well plate (pp, round bottom). Then, ligand was added in 50 μL/well and incubated for 60 minutes at 37° C. Final assay concentrations were 1 μM to 30 pM test compound, 1 μM Exon1-Q46 protein (equivalent monomer concentration) and 0.3 nM ligand [^3H3-methyl]-5-((5-methoxypyridin-2-yl)methoxy)-2-(pyrazin-2-yl)benzo[d]oxazole. Samples were transferred onto GF/B filter plates and washed 2× with 200 μL PBS using a Filtermate Harvester. After drying filter plates for 1 hour at 55° C., the back of the plates were sealed with foil and 30 μL/well scintillation fluid (Packard MicroScint 40) added, incubated for 15 minutes in the dark and counted in a MicroBeta reader. For analysis, replicate data from independent assay plates were normalized towards 0% and 100% inhibition using control wells of vehicle (0% inhibition) and 1 μM unlabelled [^3H3-methyl]-5-((5-methoxypyridin-2-yl)methoxy)-2-(pyrazin-2-yl)benzo[d]oxazole (100% inhibition). IC50 values were determined with a sigmoidal inhibition model with four variables (top, bottom, slope, IC50) in a global fit using the normalized replicate data.
The results for various example compounds were as provided in the table below (+++<100 nM; ++100−500 nM; +>500 nM; ND: not determined): […]

[2] = Unbound brain fraction (fu,brain) in mouse brain by equilibrium dialysis; type: in vitro ADME; conditions: 20% mouse brain homogenate, 5 μM, equilibrium dialysis 6 h at 37° C., average of triplicate
Experimental: Compounds were tested for unbounded brain fraction (or free fraction in brain, fu,brain). It is an accepted standard in the CNS PET imaging field that compounds with low unbound fraction in brain (<5%) likely have high non-specific binding background that is undesirable for the detection of target binding. As a result, fu,brain is an important property in the design of PET ligands for brain imaging [see Zhang et al., Design and selection parameters to accelerate the discovery of novel central nervous system positron emission tomography (PET) ligands and their application in the development of a novel phosphodiesterase 2A PET ligand. J Med Chem 2013, 56 (11), 4568-79; Liu et al., Imaging Mutant Huntingtin Aggregates: Development of a Potential PET Ligand. J Med Chem 2020, 63 (15), 8608-8633].
Determining fu,brain in Mouse Brain by Equilibrium Dialysis. Dialysis membranes (12-14 kDa) (HTDialysis, Connecticut) were soaked in phosphate buffer (10 mM potassium phosphate and 0.8% sodium chloride buffer, pH 7.4 at 37° C.) for a minimum of 1 h, at this time ethanol was added (final concentration of 20% v/v) and membranes continued to soak for 30 min Mouse brain tissue was diluted in phosphate buffer in a […] (w/v) and homogenised using a Precellys 24 (Stretton Scientific, UK) to achieve a final concentration of 20% brain homogenate.
Test compounds prepared as DMSO stocks at 0.5 mM are diluted into brain homogenate to achieve 5 μM final substrate concentration (1% DMSO) and a t=0 sample was prepared by sampling 50 μL of into 400 μL of quench solution (Acetonitrile containing 0.1% formic acid and sulfisoxazole/tolbutamide/imipramine/labetalol 200 nM). Samples were matrix matched with the addition of 50 μL of assay buffer. The HTDialysis Teflon blocks (HTDialysis, Connecticut) were assembled with pre-soaked membrane between each receiver and donor well and clamped in the stainless steel pressure plate (HTDialysis, Connecticut). The lower compartment (acceptor side) was dosed with 120 μL of buffer and the upper compartment (donor side) was dosed with 120 μL of compound in homogenate. All test compounds and controls were completed in triplicate. The HT dialysis plate was sealed and incubated for 6 h at 37° C. shaking at 250 rpm.
Following the incubation, 50 μL of sample was removed from all donor and acceptor wells and transferred into a quench plate containing 400 μL of quench solution. All samples were matrix matched with 50 μL of the alternate blank matrix. Analytical samples were diluted 1:1 with water using the Janus Robot and analysed by LC-MS/MS.
Peak areas of donor and acceptor compartments were compared to determine percent unbound (% fu) and the average of triplicate measurements was reported. Reference T0 sample was used to calculate sample recovery (%). Control compounds were compared with historic and literature values to ensure assay functionality.

T1 sequence (P42858 with tags, fused parts or gaps with the stated changes): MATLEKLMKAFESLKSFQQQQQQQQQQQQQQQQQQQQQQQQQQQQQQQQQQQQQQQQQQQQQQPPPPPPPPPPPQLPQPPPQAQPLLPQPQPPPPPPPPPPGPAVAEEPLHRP

SMILES | IC50 [1] | Mean Free Brain Fraction (%) [2]
Cn1nc(N2Cc3cc(OCc4cc(Cl)c(F)cn4)ccc3C2=O)ccc1=O [Compound 2-3, 5-[(4-Chloro-5-fluoropyridin-2-yl)methoxy]-2-(1-methyl-6-oxo-1,6-dihydropyridazin-3-yl)-2,3-dihydro-1H-isoindol-1-one] | < 100 nM | 2.7%
COc1cc(COc2ccc3c(c2)CN(c2ccc(=O)n(C)n2)C3=O)ncc1F [Compound 3-1, 5-[(5-Fluoro-4-methoxypyridin-2-yl)methoxy]-2-(1-methyl-6-oxo-1,6-di-hydropyridazin-3-yl)-2,3-dihydro-1H-isoindol-1-one] | < 100 nM | 9.7%
COc1ccc(COc2ccc3c(c2)CN(c2ccc(=O)[nH]n2)C3=O)nc1 [Compound 6-1, 5-[(5-Methoxypyridin-2-yl)methoxy]-2-(6-oxo-1,6-dihydropyridazin-3-yl)-2,3-dihydro-1H-isoindol-1-one] | < 100 nM | 11.3%
COc1ccc(COc2ccc3c(c2)CN(c2ccc(=O)n(CF)n2)C3=O)nc1 [Compound 8-1, 2-(1-(Fluoromethyl)-6-oxo-1,6-dihydropyridazin-3-yl)-5-((5-methoxypyridin-2-yl)methoxy)isoindolin-1-one] | < 100 nM | 7.4%
COc1ccc(COc2ccc3c(c2)CN(c2ccc(=O)n(CCF)n2)C3=O)nc1 [Compound 8-2, 2-[1-(2-Fluoroethyl)-6-oxo-1,6-dihydropyridazin-3-yl]-5-[(5-methoxypyridin-2-yl)methoxy]-2,3-dihydro-1H-isoindol-1-one] | < 100 nM | 9.0%
O=C1c2ccc(OCc3ccc(F)cn3)cc2CN1c1ccc(=O)[nH]n1 [Compound 9-1, 5-[(5-Fluoro-2-pyridyl)methoxy]-2-(6-oxo-1H-pyridazin-3-yl)isoindolin-1-one] | < 100 nM | 6.7%
COc1cc(COc2ccc3c(c2)CN(c2ccc(=O)[nH]n2)C3=O)ncc1F [Compound 9-3, 5-((5-Fluoro-4-methoxypyridin-2-yl)methoxy)-2-(6-oxo-1,6-dihydropyridazin-3-yl)isoindolin-1-one] | < 100 nM | 5.2%
COc1ccc(COc2cc(F)c3c(c2)CN(c2ccc(=O)n(C)n2)C3=O)nc1 [Compound 10-1, 7-Fluoro-5-[(5-methoxypyridin-2-yl)methoxy]-2-(1-methyl-6-oxo-1,6-di-hydropyridazin-3-yl)-2,3-dihydro-1H-isoindol-1-one] | < 100 nM | 14.3%
COc1ccc(COc2cc(F)c3c(c2)CN(c2ccc(=O)[nH]n2)C3=O)nc1 [Compound 10-2, 7-Fluoro-5-[(5-methoxypyridin-2-yl)methoxy]-2-(6-oxo-1,6-dihydropyridazin-3-yl)-2,3-dihydro-1H-isoindol-1-one] | < 100 nM | 9.5%
COc1ccc2c(c1)CN(c1ccc(OCc3cccnc3)nc1)C2=O [Compound 11-1, 5-Methoxy-2-{6-[(pyridin-3-yl)methoxy]pyridin-3-yl}-2,3-dihydro-1H-isoindol-1-one] | < 100 nM | 3.2%
COc1ccc(COc2cc3c(cc2F)C(=O)N(c2ccc(=O)n(C)n2)C3)nc1 [Compound 12-1, 6-Fluoro-5-[(5-methoxypyridin-2-yl)methoxy]-2-(1-methyl-6-oxo-1,6-dihydropyridazin-3-yl)-2,3-dihydro-1H-isoindol-1-one] | < 100 nM | 7.1%
COc1ccc(COc2ccc3c(c2F)CN(c2ccc(=O)n(C)n2)C3=O)nc1 [Compound 12-2, 4-Fluoro-5-[(5-methoxypyridin-2-yl)methoxy]-2-(1-methyl-6-oxo-1,6-dihydropyridazin-3-yl)-2,3-dihydro-1H-isoindol-1-one] | < 100 nM | 5.3%
COc1ccc(COc2cc(F)c3c(c2)C(=O)N(c2ccc(=O)n(C)n2)C3)nc1 [Compound 12-3, 4-Fluoro-6-[(5-methoxypyridin-2-yl)methoxy]-2-(1-methyl-6-oxo-1,6-dihydropyridazin-3-yl)-2,3-dihydro-1H-isoindol-1-one] | < 100 nM | 5.4%
COc1ccc(COc2cc3c(cc2F)CN(c2ccc(=O)n(C)n2)C3=O)nc1 [Compound 12-4, 5-Fluoro-6-[(5-methoxypyridin-2-yl)methoxy]-2-(1-methyl-6-oxo-1,6-dihydropyridazin-3-yl)-2,3-dihydro-1H-isoindol-1-one] | < 100 nM | 9.8%
COc1ccc(COc2cnc3c(c2)CN(c2ccc(=O)n(C)n2)C3=O)nc1 [Compound 12-5, 6-{3-[(5-Methoxypyridin-2-yl)methoxy]-7-oxo-5H,6H,7H-pyrrolo[3,4-b]pyridin-6-yl}-2-methyl-2,3-dihydropyridazin-3-one] | < 100 nM | 37.0%
Cn1nc(N2Cc3cc(OCc4ccc(OCCF)cn4)cnc3C2=O)ccc1=O [Compound 12-6, 6-(3-{[5-(2-Fluoroethoxy)pyridin-2-yl]methoxy}-7-oxo-5H,6H,7H-pyrrolo[3,4-b]pyridin-6-yl)-2-methyl-2,3-dihydropyridazin-3-one] | < 100 nM | 50.0%
Cn1nc(N2Cc3cc(OCc4ccc(F)cn4)cnc3C2=O)ccc1=O [Compound 12-7, 6-{3-[(5-Fluoropyridin-2-yl)methoxy]-7-oxo-5H,6H,7H-pyrrolo[3,4-b]pyridin-6-yl}-2-methyl-2,3-dihydropyridazin-3-one] | < 100 nM | 67.8%
COc1cnc(COc2cnc3c(c2)CN(c2ccc(=O)n(C)n2)C3=O)c(F)c1 [Compound 12-8, 6-{3-[(3-Fluoro-5-methoxypyridin-2-yl)methoxy]-7-oxo-5H,6H,7H-pyrrolo[3,4-b]pyridin-6-yl}-2-methyl-2,3-dihydropyridazin-3-one] | < 100 nM | 65.0%
COc1ccc(COc2ccc3c(c2F)C(=O)N(c2ccc(=O)n(C)n2)C3)nc1 [Compound 12-10, 7-Fluoro-6-[(5-methoxypyridin-2-yl)methoxy]-2-(1-methyl-6-oxo-1,6-dihydropyridazin-3-yl)-2,3-dihydro-1H-isoindol-1-one] | < 100 nM | 16.4%
COc1ccc(COc2cc3c(cc2F)C(=O)N(c2ccc(=O)[nH]n2)C3)nc1 [Compound 13-1, 6-Fluoro-5-((5-methoxypyridin-2-yl)methoxy)-2-(6-oxo-1,6-dihydropyridazin-3-yl)isoindolin-1-one] | < 100 nM | 6.6%
